Results taken from US7728033B2, “Mycophenolate mofetil in diabetic nephropathy” (Clinigene International Private Limited, priority 2003, dated 2010).

What was measured:
[1] = tested on: patients with type 1 diabetes mellitus and diabetic nephropathy; conditions: cited from earlier work
[2] = tested on: patients with diabetic nephropathy; assay: 24-hour urine protein (proteinuria), open-labeled randomized study; type: in vivo, human; parameters: Mean 24 h Urine protein, 1 month after treatment at V3 / Result Difference 24 h Urine protein, V3 (1 month) vs baseline V2 / Mean 24 h Urine protein, 3 month after treatment at V4: unit not given here
Method: In this study, a total of 30 patients were planned of which 18 were randomized and subjected to enter into one of the studies in which the patient groups each received MMF alone, lisinopril alone, or a combination of both MMF and lisinopril.
The primary end-point for this study was the proteinuria value obtained from the patients via 24-hour urine protein which was measured using the Calorimetric method Pyrogallol Red/SDS liquid stable single reagent.
(§1) Evaluation of the effects of MMF or ACE inhibitors alone or in combination on the status of proteinuria in patients with diabetic nephropathy was an open-labeled, randomized study. This study consisted of three arms as shown below. • 1. treatment with MMF alone • 2. treatment with combination of MMF and lisinopril • 3. treatment with lisinopril alone In addition, there were three phases of the study as shown below.
Phase 2: Treatment Phase (6 months): Every patient who qualified the screening phase was assigned one of the treatment arms. During this phase, patients were monitored closely and efficacy and safety parameters are assessed every month.
(§2) Study Products and Dosage: • 1. MMF: The dose of MMF given during the study was 500 mg per oral twice a day throughout the study. • 2. Lisinopril: The starting dose of lisinopril given in the study was 5 mg per oral twice a day. In case of hypertensive patients, the dose could be titrated upwards based on investigator's discretion, which in turn was based on the patient's “safety end point”. • 3. MMF+Lisinopril: In the patients who received both the drugs, the dose of MMF was 500 mg per oral twice a day and lisinopril was 5 mg per oral twice a day. In the case of hypertensive patients, the dose of lisinopril could be titrated upwards based on investigator's discretion, which in turn was based on the patient's “safety end point”.

[3] = tested on: patients with diabetic nephropathy; assay: Estimated GFR (Cockcroft-Gault formula), open-labeled randomized study; type: in vivo, human
Method: A secondary end-point for this study was the GFR value obtained for each patient. This Secondary Endpoint included Estimated GFR, which was calculated using the following formulae: […]
Once all data was collected, Glomerular Filtration Rate GFR) was determined by the Cockcroft-Gault formula.
as §1, §2

[4] = tested on: patients with IgA nephropathy; conditions: MMF 1-1.5g per day vs Prednisone 30-40 mg per day; followed to 72 weeks; preliminary report; cited from earlier work
Diabetic rats = conditions: 8 months; cited from earlier work
[5] = tested on: patients with lupus nephritis; conditions: systemic lupus erythomatosis; 0.5 to 1.5 g/d; cited from earlier work
[6] = Benefited patients, MMF alone 500 mg per oral twice a day
[7] = Benefited patients, MMF alone 500 mg twice daily
[8] = Not benefited patients, MMF alone 500 mg per oral twice a day
[9] = Not benefited patients, MMF alone 500 mg twice daily
[10] = Benefited patients, lisinopril alone 5 mg twice daily
[11] = Not benefited patients, lisinopril alone 5 mg twice daily

C[C@H](CS)C(=O)N1CCC[C@H]1C(=O)O [Captopril]
progression of renal disease [1]: prevents or delays the progression of renal disease

COc1c(C)c2c(c(O)c1C/C=C(\C)CCC(=O)OCCN1CCOCC1)C(=O)OC2 [MMF, mycophenolate mofetil]
Mean 24 h Urine protein, 1 month after treatment at V3 [2, 6]: 112.73
Result Difference 24 h Urine protein, V3 (1 month) vs baseline V2 [2, 6]: −203.93
Mean 24 h Urine protein, 3 month after treatment at V4 [2, 7]: 260.8
Result Difference 24 h Urine protein, V4 (3 month) vs baseline V2 [2, 7]: −136.6
patients with reduced proteinuria ([2]; MMF alone 500 mg twice daily, at V4 at the end of 3 months): 67%
patients with reduced proteinuria ([2]; MMF alone, after 1 month of treatment (V3 vs V2)): 67%
Mean 24 h Urine protein, 1 month after treatment at V3 [2, 8]: 696.3
Result Difference 24 h Urine protein, V3 (1 month) vs baseline V2 [2, 8]: 361.7
Mean 24 h Urine protein, 3 month after treatment at V4 [2, 9]: 305.5
Mean GFR, 1 month after treatment at V3 [3, 6]: 89.3 mL/min
Result Difference GFR, V3 (1 month) vs baseline V2 [3, 6]: 0.27 mL/min
Mean GFR, 3 month after treatment at V4 [3, 7]: 81.85 mL/min
Result Difference GFR, V4 (3 month) vs baseline V2 [3, 7]: -1.35 mL/min
Mean GFR, 1 month after treatment at V3 [3, 8]: 75.26 mL/min
Result Difference GFR, V3 (1 month) vs baseline V2 [3, 8]: 4.40 mL/min
Mean GFR, 3 month after treatment at V4 [3, 9]: 49.9 mL/min
decreasing proteinuria, protecting renal function and decreasing blood lipid levels [4]: superior to Prednisone
albuminuria, glomerular macrophage infiltration and glomerulosclerosis (Diabetic rats): did prevent
effect on blood pressure, glomerular dynamics or blood glucose levels (Diabetic rats): no effect
tolerability [5]: well tolerated

NCCCC[C@H](N[C@@H](CCc1ccccc1)C(=O)O)C(=O)N1CCC[C@H]1C(=O)O [lisinopril]
Mean 24 h Urine protein, 1 month after treatment at V3 [2, 10]: 236.66
Mean 24 h Urine protein, 3 month after treatment at V4 [2, 10]: 161.15
Mean 24 h Urine protein, 6 month after treatment at V5 [2, 10]: 248.4
Result Difference 24 h Urine protein, V3 (1 month) vs baseline V2 [2, 10]: −133.6
Result Difference 24 h Urine protein, V4 (3 month) vs baseline V2 [2, 10]: −268.75
Result Difference 24 h Urine protein, V5 (6 month) vs baseline V2 [2, 10]: −239.6
Mean 24 h Urine protein, 1 month after treatment at V3 [2, 11]: 211.25
Mean 24 h Urine protein, 3 month after treatment at V4 [2, 11]: 289.2
Mean 24 h Urine protein, 6 month after treatment at V5 [2, 11]: 626
Result Difference 24 h Urine protein, V3 (1 month) vs baseline V2 [2, 11]: 53.73
Result Difference 24 h Urine protein, V4 (3 month) vs baseline V2 [2, 11]: 101.47
Result Difference 24 h Urine protein, V5 (6 month) vs baseline V2 [2, 11]: 254.2
patients with reduced proteinuria ([2]; lisinopril alone 5 mg twice daily, at the end of 1 month): 42%
patients with reduced proteinuria ([2]; lisinopril alone 5 mg twice daily, at the end of 3 month): 40%
patients with reduced proteinuria ([2]; lisinopril alone 5 mg twice daily, at the end of 6 month): 50%
Mean GFR, 1 month after treatment at V3 [3, 10]: 79.16 mL/min
Mean GFR, 3 month after treatment at V4 [3, 10]: 89.55 mL/min
Mean GFR, 6 month after treatment at V5 [3, 10]: 105.9 mL/min
Result Difference GFR, V3 (1 month) vs baseline V2 [3, 10]: -0.09 mL/min
Result Difference GFR, V4 (3 month) vs baseline V2 [3, 10]: 7.95 mL/min
Result Difference GFR, V5 (6 month) vs baseline V2 [3, 10]: 28.5 mL/min
Mean GFR, 1 month after treatment at V3 [3, 11]: 63.97 mL/min
Mean GFR, 3 month after treatment at V4 [3, 11]: 68.76 mL/min
Mean GFR, 6 month after treatment at V5 [3, 11]: 76.4 mL/min
Result Difference GFR, V3 (1 month) vs baseline V2 [3, 11]: 1.91 mL/min
Result Difference GFR, V4 (3 month) vs baseline V2 [3, 11]: 0.13 mL/min
Result Difference GFR, V5 (6 month) vs baseline V2 [3, 11]: -9.4 mL/min
